This note sets out measurements from PMC12284850, “In Silico Design of Antimicrobial Peptides against Carbapenem-Resistant Infections with Enhanced Activity by Nanoformulation” (ACS Applied Bio Materials, 2025).

A word on the MIC: it is the lowest concentration that inhibits growth of the organism. Higher therefore signals weaker potency.

The test system of data set [1] is A. baumannii ATCC19606. Type of data set: cell-based. Conditions: 37 °C, 18 h. The text has this: The antimicrobial mechanism of colistin against bacteria has been attributed to the interaction between positively charged colistin and negatively charged outer membrane. Colistin could be displaced by divalent ions, such as calcium ions (Ca^2+) and magnesium (Mg^2+) in a competitively way. Moreover, elevated levels of divalent cations can enhance membrane rigidity, thereby reducing drug penetration and overall efficacy. To investigate the antimicrobial mechanism of T2–02, the competitive assays using divalent calcium ion were conducted. The elevated MICs of colistin were observed by adding Ca^2+ (2 to 32 μg/mL, Table S4).
As previously reported, the MIC values of T2–02 in conjunction with different chemical agents was estimated using the broth microdilution technique. Different concentrations of T2–02 were combined with Ca2+ separately, and the effect of chemical agents on T2–02 were tracked by observing variations in their MIC values. Each solution was added to a 96-well plate at the proper concentration in 100 μL volume. Next, 100 μL of the modified bacterial solution was added to each well. The absorbance was measured after incubation at 37 °C for 0 and 18 h.

In another data set the test system is HK-2 cells. The data set can be described thus: Cytotoxicity assay (MTT). Format: cell-based. Here is the method:
(§1) We tested the cytotoxicity of several antibiotic compounds, including peptides and nanoparticles, on the human embryonic kidney cell lines HEK-293, HK-2, and […]. The cells were stored in DMEM medium and incubated at 37 °C with 5% CO2 in a humidifying environment. Using the MTT (methylthiazolyldiphenyl-tetrazolium bromide) test, cell viability was evaluated. Following a 5 × 10^3 cell/mL seeding in 96-well plates, the cells were exposed to 100 μL of samples at varying concentrations (12.5–200 μM) during 72 h at 37 °C. Later, each well is loaded with MTT solution (5 mg/mL in PBS) at a volume of 10 μL. The plates were left in the dark for 4 h. After forming formazan crystals due to the action of mitochondrial reductases in living cells, the crystals were dissolved using a solubilizing solution (pH 4.7, 40% dimethylformamide, 2% glacial acetic acid, and 16% sodium dodecyl sulfate) were shaken at 150 rpm and incubated for an hour at 37 °C. Using graphical plot analysis, the IC50 value–the concentration that results in 50% cell death–was obtained by measuring the absorbance of the dissolved formazan at 570 nm. The average of three independent tests, each carried out in triplicate, was used to display the results.

The subject of data set [2] is human red blood cells (RBCs). Kind of data set: Hemolysis assay. Conditions: at 256 μg/mL, 2% hematocrit, 1 h, 37 °C, absorbance 540 nm, triplicate. Format: cell-based. How it is done:
5 . Hemolysis profiles of colistin, free T2–02, and T2–02-loaded liposomes. (A) Colistin, (B) free T2–02 peptide, and (C) T2–02-loaded liposomes (T2–02 Lipo) were incubated with human red blood cells (RBCs) at various concentrations (0–256 μg/mL) for 1 hour at 37 °C.
The hemolytic potential of colistin, T2–02, and T2–02 Lipo were assessed using a modified erythrocyte lysis assay. Briefly, fresh erythrocytes were washed twice with phosphate-buffered saline (PBS) and resuspended in 5% glucose solution to prepare a 2% hematocrit suspension. Aliquots (100 μL) of each test compound at varying concentrations were incubated with the erythrocyte suspension at 37 °C with gentle agitation (120 rpm) for 1 h. After incubation, samples were centrifuged at 700 × g for 10 min, and the supernatant was transferred to a 96-well microplate. The release of hemoglobin was quantified by measuring the absorbance at 540 nm. The percentage of hemolysis was calculated as follows: Hemolysis (%) = (OD of test sample – OD of negative control)/(OD of positive control-OD of negative control) × 100%. Each experiment was performed in triplicate, and data were expressed as mean ± standard deviation (SD).

The test system of another data set is E. coil ATCC25922. Type of data set: cell-based, E. coli. Here is the method:
(§2) The broth microdilution procedure involves preparing CAMHB broth, a bacterial suspension adjusted to McFarland 0.5 (1.5 × 10^8 CFU/mL) and diluted 200×, and a drug solution at 2× the final target concentration. To achieve a 400× final bacterial dilution, add 100 μL of the drug at different doses to a 96-well plate, then 100 μL of the diluted bacterial culture. Measure the initial absorbance (0 h), incubate at 37 °C for 16–18 h, and measure the final absorbance. With no change in absorbance, the MIC signifies the absence of bacterial growth.

Data set [3] has as its system A. baumannii ATCC BAA-747. Format: cell-based. How it is done: as §2
Data set [4] deals with A. baumannii ATCC19606. Type of data set: cell-based. How it is done: as §2
The test system of another data set is E. faecalis ATCC 29212. Type of data set: cell-based. Here is the method: as §2
Data set [5] concerns K. pneumoniae ATCC BAA-1705. Type of data set: cell-based. Here is the method: as §2
For data set [6], the system named is K. pneumoniae ATCCC700603. Format: cell-based. Here is the method:
as §2

Another data set deals with P. aeruginosa ATCC27853. Type of data set: cell-based. Here is the method:
as §2

The test system of a further data set is S. aureus ATCC25923. Format: cell-based. Here is the method:
as §2

For a further data set, the system named is S. aureus ATCC29213. Type of data set: cell-based. How it is done: as §2
The test system of another data set is S. aureus ATCC33592. Type of data set: cell-based. How it is done: as §2
A further data set concerns S. aureus ATCC700698. Type of data set: cell-based. Here is the method: as §2
Another data set concerns HEK293. Format: cell-based, human. Conditions: 72 h. Here is the method:
as §1

In brackets after ≈: the same amount, converted by molar mass. Read-outs that look alike come from different tables or passages of the source. Where a SMILES comes first, the peptide text is derived from it. Bridges are numbered along the chain shown (N, C = ends). [ ]: non-standard residue; d: D form. The star is where a group is joined. X1 = CC[C@H](C)CCCCC(=O)*; Dab = NCC[C@H](N)C(=O)O A value given as a limit tells only on which side of the number the result lay.

As to `CC[C@H](C)CCCCC(=O)N[C@@H](CCN)C(=O)N[C@H](C(=O)N[C@@H](CCN)C(=O)N[C@H]1CCNC(=O)[C@H]([C@@H](C)O)NC(=O)[C@H](CCN)NC(=O)[C@H](CCN)NC(=O)[C@H](CC(C)C)NC(=O)[C@@H](CC(C)C)NC(=O)[C@H](CCN)NC1=O)[C@@H](C)O` [Colistin] (X1-[Dab]T[Dab][Dab][Dab][dL]L[Dab][Dab]T; lactam 4-C (inferred); N-terminus assumed), the “Antibacterial activity (MIC), 20 mM CaCl2” value in the data set with A. baumannii ATCC19606 [1] (in the presence of 20 mM CaCl2, broth microdilution) is 32 µg/mL. In addition, the “Antibacterial activity (MIC), Control” value in the data set on A. baumannii ATCC19606 [1] (without CaCl2, broth microdilution) was determined as 2 µg/mL. Besides, in the data set with HK-2 cells (ratio of HK-2 IC50 to that of polymyxin B), the “Cytotoxicity HK-2 related to PMB” value came out at 2.6. Further, the Hemolysis in data set [2] is given as approximately 45%.

Regarding `CC[C@H](C)[C@H](NC(=O)[C@H](CCC(=O)O)NC(=O)[C@H](CC(N)=O)NC(=O)[C@H](CC(C)C)NC(=O)[C@H](C)NC(=O)[C@H](C)NC(=O)[C@H](CCCCN)NC(=O)CNC(=O)[C@H](C)NC(=O)[C@H](CC(N)=O)NC(=O)[C@H](CCCCN)NC(=O)[C@H](CC(C)C)NC(=O)[C@@H](NC(=O)[C@H](CC(=O)O)NC(=O)[C@H](CCCCN)NC(=O)[C@H](Cc1c[nH]c2ccccc12)NC(=O)[C@H](CC(C)C)NC(=O)[C@H](C)N)[C@@H](C)CC)C(=O)N[C@@H](CC(N)=O)C(=O)N[C@@H](CCC(N)=O)C(=O)N[C@@H](CC(C)C)C(=O)O` [T2] (H-ALWKDILKNAGKAALNEINQL-OH), the MIC is more than 1024 µg/mL in the data set on E. coil ATCC25922; 8 µg/mL (≈ 3.44 µM) in data set [3]; 8 µg/mL (≈ 3.44 µM) in the data set on A. baumannii ATCC19606 [4]; 1024 µg/mL (≈ 441 µM) in the data set with E. faecalis ATCC 29212; more than 1024 µg/mL in [5]; more than 512 µg/mL in [6]. Further, the MIC in the data set with P. aeruginosa ATCC27853 was 8 µg/mL (≈ 3.44 µM); against S. aureus ATCC25923, 1024 µg/mL (≈ 441 µM); against S. aureus ATCC29213, more than 512 µg/mL; in the data set with S. aureus ATCC33592, more than 512 µg/mL; with S. aureus ATCC700698, more than 512 µg/mL. The “IC50 HEK293” value in the data set on HEK293 was more than 1024 µg/mL.

Turning to `CC[C@H](C)[C@H](NC(=O)[C@H](CCC(=O)O)NC(=O)[C@H](CC(N)=O)NC(=O)[C@H](CC(C)C)NC(=O)[C@H](C)NC(=O)[C@H](C)NC(=O)[C@H](CCCCN)NC(=O)CNC(=O)[C@H](CCCNC(=N)N)NC(=O)[C@H](CCCNC(=N)N)NC(=O)[C@H](CCCCN)NC(=O)[C@H](CC(C)C)NC(=O)[C@H](CC(C)C)NC(=O)[C@H](CCCNC(=N)N)NC(=O)[C@H](CCCCN)NC(=O)[C@H](Cc1c[nH]c2ccccc12)NC(=O)[C@H](CC(C)C)NC(=O)[C@H](C)N)C(=O)N[C@@H](CC(N)=O)C(=O)N[C@@H](CCC(N)=O)C(=O)N[C@@H](CC(C)C)C(=O)O` [T2–01] (H-ALWKRLLKRRGKAALNEINQL-OH), the MIC with E. coil ATCC25922 is more than 512 µg/mL; in data set [3], 64 µg/mL (≈ 25.7 µM); with A. baumannii ATCC19606 [4], 64 µg/mL (≈ 25.7 µM); with E. faecalis ATCC 29212 it was more than 512 µg/mL; in data set [5], more than 512 µg/mL; in data set [6], more than 512 µg/mL. In addition, the MIC in the data set with P. aeruginosa ATCC27853 is 64 µg/mL (≈ 25.7 µM); with S. aureus ATCC25923, more than 512 µg/mL; against S. aureus ATCC29213, 512 µg/mL (≈ 205 µM); with S. aureus ATCC33592 it was more than 512 µg/mL; against S. aureus ATCC700698, more than 512 µg/mL.

For `CC[C@H](C)[C@H](NC(=O)[C@H](CC(=O)O)NC(=O)[C@H](CCCCN)NC(=O)[C@H](Cc1c[nH]c2ccccc12)NC(=O)[C@H](CC(C)C)NC(=O)[C@H](C)N)C(=O)N[C@@H](CC(C)C)C(=O)N[C@@H](CCCCN)C(=O)N[C@@H](CC(N)=O)C(=O)N[C@@H](C)C(=O)NCC(=O)N[C@@H](CCCCN)C(=O)N[C@@H](C)C(=O)N[C@@H](C)C(=O)N[C@@H](CC(C)C)C(=O)N[C@@H](CC(N)=O)C(=O)N[C@@H](CCC(=O)O)C(=O)N[C@H](C(=O)N[C@@H](CC(N)=O)C(=O)N[C@@H](CCC(N)=O)C(=O)N[C@@H](CC(C)C)C(=O)N[C@H](C(=O)N[C@@H](CC(N)=O)C(=O)NCC(=O)N[C@@H](CCCNC(=N)N)C(=O)NCC(=O)N[C@@H](CC(C)C)C(=O)N[C@@H](CCCCN)C(=O)N[C@@H](CCCCN)C(=O)O)C(C)C)[C@@H](C)CC` [seq ID-1, reference compound] (H-ALWKDILKNAGKAALNEINQLVNGRGLKK-OH), the MIC is 64 µg/mL (≈ 20.1 µM) against E. coil ATCC25922; 32 µg/mL (≈ 10.1 µM) in [3]; 32 µg/mL (≈ 10.1 µM) with A. baumannii ATCC19606 [4]; 128 µg/mL (≈ 40.3 µM) in the data set with E. faecalis ATCC 29212; 128 µg/mL (≈ 40.3 µM) in data set [5]; 128 µg/mL (≈ 40.3 µM) in [6]. In addition, the MIC was 32 µg/mL (≈ 10.1 µM) in the data set on P. aeruginosa ATCC27853; 128 µg/mL (≈ 40.3 µM) with S. aureus ATCC25923; more than 512 µg/mL in the data set with S. aureus ATCC29213; more than 512 µg/mL with S. aureus ATCC33592; more than 512 µg/mL against S. aureus ATCC700698.

Regarding SPR 206 [reference compound], in the data set with HK-2 cells, the “Cytotoxicity HK-2 related to PMB” value turned out to be 11.6.
